Patent publication US7365174B2, “Azalide and azalactam derivatives and method for producing the same” (Meiji Seika Kaisha, Ltd., priority 2003, dated 2008)
Converted amounts (≈) assume the structure as drawn. Read-outs that look alike come from different tables or passages of the source.

Experiments:
Experiment in all cases: Antibacterial activity test (agar dilution MIC)
Assay type in all cases: cell-based
[1] = system: Moraxella catarrhalis W-0506; conditions: read-out: Minimum inhibitory concentration (MIC)
Procedure: (§1) In vitro antibacterial activities of the compounds of Examples 13, 28, 35, 43, 53 to 55, 64, 70, 84, 90, 94, 95, 108, 128, and 129 were measured as follows by referring to the standard method of the Japanese Society of Chemotherapy (Chemotherapy, Vol. 29, pp. 76-79, 1981). The antibacterial activity of midecamycin (MDM) was similarly measured for comparison.
(§2) Using each solution of the test substance prepared in methanol at a concentration of […], 2-fold serial dilutions were prepared by using methanol. Each of the prepared solutions of the test substances was put into a petri dish in a volume of 200 μl, added with 10 ml of agar medium for sensitivity measurement added with 5% horse sterile defibrinated blood, 15 μg/ml of β-nicotinamide-adenine dinucleotide, and 2.5 μg/ml of Hemin, and mixed for dilution to prepare an agar plate containing a test substance. A predetermined volume of a liquid medium for sensitivity measurement, prepared so as to contain a given number of test bactera, was inoculated on the agar plate containing a test substance by using a micro planter (Sakuma Seisakusho), and after the inoculation, the bacteria were cultured at 37° C. for about 20 hours. After the culture, presence or absence of growth of the test bacteria on the plate was observed by visual inspection, and the minimum concentration at which growth was not observed was determined as the minimum inhibitory concentration (MIC) of the test sustance.

[2] = system: Staphylococcus aureus 209P JC-1; conditions: read-out: Minimum inhibitory concentration (MIC)
Procedure: as §1, §2

[3] = system: Streptococcus pneumoniae DP1 TypeI; conditions: DP1TYPEI, read-out: Minimum inhibitory concentration (MIC)
Procedure: as §1, §2

[4] = system: Streptococcus pneumoniae IP692; conditions: read-out: Minimum inhibitory concentration (MIC)
Procedure: as §1, §2

[5] = system: Streptococcus pneumoniae TH-662; conditions: read-out: Minimum inhibitory concentration (MIC)
Procedure: as §1, §2

[6] = system: Streptococcus pyogenes Cook; conditions: read-out: Minimum inhibitory concentration (MIC)
Procedure: as §1, §2

[7] = system: Haemophilus influenzae 9334; conditions: read-out: Minimum inhibitory concentration (MIC)
Procedure: as §1, §2

[8] = W0506, test bacterium F = Moraxella catarrhalis W-0506, blood agar medium, 37° C., about 20 hours
[9] = test bacterium A = Staphylococcus aureus 209P JC-1, blood agar medium, 37° C., about 20 hours
[10] = test bacterium B = Streptococcus pneumoniae DP1 TypeI, blood agar medium, 37° C., about 20 hours
[11] = test bacterium C = Streptococcus pneumoniae IP692, blood agar medium, 37° C., about 20 hours
[12] = TH662, test bacterium D = Streptococcus pneumoniae TH-662, blood agar medium, 37° C., about 20 hours
[13] = test bacterium E = Streptococcus pyogenes Cook, blood agar medium, 37° C., about 20 hours
[14] = test bacterium G = Haemophilus influenzae 9334, blood agar medium, 37° C., about 20 hours

SMILES	MIC [1, 8] [µg/mL]	MIC [2, 9] [µg/mL]	MIC [3, 10] [µg/mL]	MIC [4, 11] [µg/mL]	MIC [5, 12] [µg/mL]	MIC [6, 13] [µg/mL]	MIC [7, 14] [µg/mL]	MIC ([7]; Haemophilus influenzae, 9334, 20 h) [µg/mL]	MIC ([1]; Moraxella catarrhalis, W0506, 20 h) [µg/mL]	MIC ([2]; Staphylococcus aureus, 209P, 20 h) [µg/mL]	MIC ([3]; Streptococcus pneumoniae, 20 h) [µg/mL]	MIC ([4]; Streptococcus pneumoniae, IP692, 20 h) [µg/mL]	MIC ([5]; Streptococcus pneumoniae, TH662, 20 h) [µg/mL]	MIC ([6]; Streptococcus pyogenes, 20 h) [µg/mL]
CCC(=O)OC1C(C)O[C@@H](O[C@@H]2C(C)O[C@@H](O[C@H]3[C@@H](CC=O)C[C@@H](C)[C@@H](O)CN(C)CCC(/C=C/Cc4ccnc5ccccc45)NC(=O)C[C@@H](OC(=O)CC)[C@@H]3OC)C(O)C2N(C)C)CC1(C)O (some centres unmarked) [Example 28]	2 (≈ 2.06 µM)	0.5 (≈ 0.515 µM)	0.03 (≈ 0.0309 µM)	0.13 (≈ 0.134 µM)	8 (≈ 8.24 µM)	0.25 (≈ 0.257 µM)	1 (≈ 1.03 µM)							
CCC(=O)OC1C(C)O[C@@H](O[C@@H]2C(C)O[C@@H](O[C@H]3[C@@H](CC=O)C[C@@H](C)[C@@H](O)CN(C)CCC(CCCc4cnc5ccccc5c4)NC(=O)C[C@@H](OC(=O)CC)[C@@H]3OC)C(O)C2N(C)C)CC1(C)O (some centres unmarked) [Example 35]	4 (≈ 4.11 µM)	1 (≈ 1.03 µM)	0.03 (≈ 0.0308 µM)	0.06 (≈ 0.0617 µM)	8 (≈ 8.22 µM)	0.25 (≈ 0.257 µM)	2 (≈ 2.06 µM)							
CCC(=O)O[C@@H]1CC(=O)O[C@@H](C/C=C/c2ccc3ccccc3c2)CCCN(C)C[C@H](O)[C@H](C)C[C@H](CC=O)[C@H](O[C@@H]2OC(C)[C@@H](O[C@H]3CC(C)(O)[C@@H](OC(=O)CC)C(C)O3)C(N(C)C)C2O)[C@H]1OC (some centres unmarked) [Example 84]	2 (≈ 2.03 µM)	0.5 (≈ 0.507 µM)	0.06 (≈ 0.0609 µM)	0.06 (≈ 0.0609 µM)	8 (≈ 8.12 µM)	0.25 (≈ 0.254 µM)	8 (≈ 8.12 µM)							
CCC(=O)O[C@@H]1CC(=O)O[C@@H](C/C=C/c2cnc3ncccc3c2)CCCN(C)C[C@H](O)[C@H](C)C[C@H](CC=O)[C@H](O[C@@H]2OC(C)[C@@H](O[C@H]3CC(C)(OC(C)=O)[C@@H](OC(=O)CC)C(C)O3)C(N(C)C)C2O)[C@H]1OC (some centres unmarked) [Example 94]	1 (≈ 0.972 µM)	0.5 (≈ 0.486 µM)	0.015 (≈ 0.0146 µM)	0.03 (≈ 0.0291 µM)	0.5 (≈ 0.486 µM)	0.06 (≈ 0.0583 µM)	4 (≈ 3.89 µM)							
CCC(=O)O[C@@H]1CC(=O)O[C@@H](C/C=C/c2ccc3ccccc3c2)CCCN(C)C[C@H](O)[C@H](C)C[C@H](CC=O)[C@H](O[C@@H]2OC(C)[C@@H](O[C@H]3CC(C)(OC(C)=O)[C@@H](OC(=O)CC)C(C)O3)C(N(C)C)C2O)[C@H]1OC (some centres unmarked) [Example 95]	4 (≈ 3.89 µM)	1 (≈ 0.973 µM)	0.06 (≈ 0.0584 µM)	0.13 (≈ 0.127 µM)	1 (≈ 0.973 µM)	0.25 (≈ 0.243 µM)	32 (≈ 31.2 µM)							
CCC(=O)O[C@@H]1CC(=O)O[C@@H](C/C=C/c2cccc(-c3cccnc3)c2)CCCN(C)C[C@H](O)[C@H](C)C[C@H](CC=O)[C@H](O[C@@H]2OC(C)[C@@H](O[C@H]3CC(C)(OC(C)=O)[C@@H](OC(=O)CC)C(C)O3)C(N(C)C)C2O)[C@H]1OC (some centres unmarked) [Example 108]	2 (≈ 1.9 µM)	0.5 (≈ 0.474 µM)	0.03 (≈ 0.0285 µM)	0.06 (≈ 0.0569 µM)	0.5 (≈ 0.474 µM)	0.13 (≈ 0.123 µM)	8 (≈ 7.59 µM)							
CCCC(=O)O[C@H]1C(C)O[C@@H](O[C@@H]2C(C)O[C@@H](O[C@H]3[C@@H](CC=O)C[C@@H](C)[C@@H](O)CN(C)CCC[C@H](C/C=C/c4cnc5ccccc5c4)OC(=O)C[C@@H](O)[C@@H]3OC)C(O)C2N(C)C)CC1(C)OC(=O)CC (some centres unmarked) [Example 128]	1 (≈ 1 µM)	0.5 (≈ 0.5 µM)	0.03 (≈ 0.03 µM)	0.03 (≈ 0.03 µM)	0.13 (≈ 0.13 µM)	0.06 (≈ 0.06 µM)	16 (≈ 16 µM)							
CCCC(=O)O[C@H]1C(C)O[C@@H](O[C@@H]2C(C)O[C@@H](O[C@H]3[C@@H](CC=O)C[C@@H](C)[C@@H](O)CN(C)CCC[C@H](C/C=C/c4cncc5ccccc45)OC(=O)C[C@@H](O)[C@@H]3OC)C(O)C2N(C)C)CC1(C)OC(=O)CC (some centres unmarked) [Example 129]	1 (≈ 1 µM)	0.5 (≈ 0.5 µM)	0.015 (≈ 0.015 µM)	0.03 (≈ 0.03 µM)	0.13 (≈ 0.13 µM)	0.06 (≈ 0.06 µM)	8 (≈ 8 µM)							
CCC(=O)O[C@@H]1CC(=O)O[C@H](C)C/C=C/C=C/[C@H](O)[C@H](C)C[C@H](CC=O)[C@H](O[C@@H]2O[C@H](C)[C@@H](O[C@H]3C[C@@](C)(O)[C@@H](OC(=O)CC)[C@H](C)O3)[C@H](N(C)C)[C@H]2O)[C@H]1OC [MDM, midecamycin, reference compound]								2 (≈ 2.46 µM)	2 (≈ 2.46 µM)	0.5 (≈ 0.614 µM)	0.25 (≈ 0.307 µM)	0.5 (≈ 0.614 µM)	> 128	0.25 (≈ 0.307 µM)

Continued, in another order:

MIC [1, 8] [µg/mL]	MIC [2, 9] [µg/mL]	MIC [3, 10] [µg/mL]	MIC [4, 11] [µg/mL]	MIC [5, 12] [µg/mL]	MIC [6, 13] [µg/mL]	MIC [7, 14] [µg/mL]	SMILES	MIC ([7]; Haemophilus influenzae, 9334, 20 h) [µg/mL]	MIC ([1]; Moraxella catarrhalis, W0506, 20 h) [µg/mL]	MIC ([2]; Staphylococcus aureus, 209P, 20 h) [µg/mL]	MIC ([3]; Streptococcus pneumoniae, 20 h) [µg/mL]	MIC ([4]; Streptococcus pneumoniae, IP692, 20 h) [µg/mL]	MIC ([5]; Streptococcus pneumoniae, TH662, 20 h) [µg/mL]	MIC ([6]; Streptococcus pyogenes, 20 h) [µg/mL]
1 (≈ 1.01 µM)	0.13 (≈ 0.132 µM)	0.015 (≈ 0.0152 µM)	0.03 (≈ 0.0304 µM)	8 (≈ 8.11 µM)	0.03 (≈ 0.0304 µM)		CCC(=O)O[C@@H]1CC(=O)OCCC(/C=C/Cc2ccnc3ccccc23)CN(C)C[C@H](O)[C@H](C)C[C@H](CC=O)[C@H](O[C@@H]2OC(C)[C@@H](O[C@H]3CC(C)(O)[C@@H](OC(=O)CC)C(C)O3)C(N(C)C)C2O)[C@H]1OC (single isomer, unassigned) [Example 54]							
0.25 (≈ 0.259 µM)	0.25 (≈ 0.259 µM)	0.13 (≈ 0.135 µM)	0.25 (≈ 0.259 µM)	16 (≈ 16.6 µM)	0.25 (≈ 0.259 µM)	0.5 (≈ 0.519 µM)	CCC(=O)OC1C(C)O[C@@H](O[C@@H]2C(C)O[C@@H](O[C@H]3[C@@H](CC=O)C[C@@H](C)[C@@H](O)CN(CCCCc4ccccc4)CCCNC(=O)C[C@@H](OC(=O)CC)[C@@H]3OC)C(O)C2N(C)C)CC1(C)OC(C)=O (some centres unmarked) [Example 13]							
0.5 (≈ 0.503 µM)	0.25 (≈ 0.252 µM)	0.06 (≈ 0.0604 µM)	0.06 (≈ 0.0604 µM)	1 (≈ 1.01 µM)	0.13 (≈ 0.131 µM)	0.5 (≈ 0.503 µM)	CCC(=O)O[C@@H]1CC(=O)O[C@H](C)CCCN(CCCCc2ccccc2)C[C@H](O)[C@H](C)C[C@H](CC=O)[C@H](O[C@@H]2OC(C)[C@@H](O[C@H]3CC(C)(OC(C)=O)[C@@H](OC(=O)CC)C(C)O3)C(N(C)C)C2O)[C@H]1OC (some centres unmarked) [Example 43]							
1 (≈ 1.01 µM)	0.5 (≈ 0.507 µM)	0.015 (≈ 0.0152 µM)	0.03 (≈ 0.0304 µM)	8 (≈ 8.11 µM)	0.06 (≈ 0.0608 µM)	2 (≈ 2.03 µM)	CCC(=O)O[C@@H]1CC(=O)O[C@@H](C/C=C/c2cnc3ccccc3c2)CCCN(C)C[C@H](O)[C@H](C)C[C@H](CC=O)[C@H](O[C@@H]2OC(C)[C@@H](O[C@H]3CC(C)(O)[C@@H](OC(=O)CC)C(C)O3)C(N(C)C)C2O)[C@H]1OC (some centres unmarked) [Example 53]							
0.25 (≈ 0.318 µM)	0.5 (≈ 0.636 µM)	0.03 (≈ 0.0382 µM)	0.03 (≈ 0.0382 µM)	> 128	0.06 (≈ 0.0763 µM)		CCC(=O)O[C@@H]1CC(=O)OCCC(/C=C/Cc2ccnc3ccccc23)CN(C)C[C@H](O)[C@H](C)C[C@H](CC=O)[C@H](O[C@@H]2OC(C)[C@@H](O)C(N(C)C)C2O)[C@H]1OC (some centres unmarked) [Example 55]							
0.25 (≈ 0.256 µM)	0.25 (≈ 0.256 µM)	0.13 (≈ 0.133 µM)	0.25 (≈ 0.256 µM)	8 (≈ 8.18 µM)	0.06 (≈ 0.0613 µM)	1 (≈ 1.02 µM)	CCC(=O)O[C@@H]1CC(=O)NCCCCN(CCCCc2ccccc2)C[C@H](O)[C@H](C)C[C@H](CC=O)[C@H](O[C@@H]2OC(C)[C@@H](O[C@H]3CC(C)(OC(C)=O)[C@@H](OC(=O)CC)C(C)O3)C(N(C)C)C2O)[C@H]1OC (some centres unmarked) [Example 64]							
1 (≈ 0.973 µM)	0.25 (≈ 0.243 µM)	0.015 (≈ 0.0146 µM)	0.03 (≈ 0.0292 µM)	0.25 (≈ 0.243 µM)	0.03 (≈ 0.0292 µM)	4 (≈ 3.89 µM)	CCC(=O)O[C@@H]1CC(=O)O[C@@H](C/C=C/c2cnc3ccccc3c2)CCCN(C)C[C@H](O)[C@H](C)C[C@H](CC=O)[C@H](O[C@@H]2OC(C)[C@@H](O[C@H]3CC(C)(OC(C)=O)[C@@H](OC(=O)CC)C(C)O3)C(N(C)C)C2O)[C@H]1OC (some centres unmarked) [Example 90]							
